“And” between values parts separate entries of the source, which are not always exact repeats. Equal entries are not always repeated. After the bases stand the sugars from the 5' end (letter, count) and the backbone: PS all phosphorothioate, else s phosphorothioate and o phosphodiester by linkage. Methylation of C is not given here. l = locked nucleic acid (LNA); d = 2'-deoxy (DNA)

Target mRNA inhibition data for 60 sequences are collected here from the OligoGym collection.

One data set deals with MYH7. To be noted: ASO, CC-2580, 5 µM.
For a further data set, the target named is ANGPTL2. To be noted: ASO.

With “TCAGCTTGGCGATGATCT (sugars l2 d9 l1 d3 l3, PS)”, the target mRNA inhibition in the data set with MYH7 is 40% and 33%.

As to “CTTGGCAATGATCTCATCC (sugars ldldddddddllddlddll, PS)”, the target mRNA inhibition with MYH7 was 64% and 47%. Still for that read-out and setting: for “CTTGGCAATGATCTCATCC (sugars ldddddddlddlddlddll, PS)” the value was 44% and 27%; for “CAGCTTGGCGATGATCT (sugars lddlddddddlldddll, PS)”, -44% and -36%; for “CTTGGCAATGATCTCATCC (sugars ldddldddddldlddddll, PS)”, 12% and 1%.

In the case of “TCAGCTTGGCGATGATCT (sugars llldlddldddddldlll, PS)”, in the data set with MYH7, the target mRNA inhibition was 0% and 2%. For the sequence “CTTGGCAATGATCTCATCC (sugars lldldddddddlddlddll, PS)”, the target mRNA inhibition with MYH7 was 58% and 45%.

Take “CTTGGCAATGATCTCATCC (sugars ldddddddldlddldldll, PS)”: in the data set with MYH7, the target mRNA inhibition is 22% and 4%. On the same count and under the same terms, for “CTTGGCAATGATCTCATCC (sugars l3 d10 l1 d2 l3, PS)” the value was 80% and 64%. Regarding “CAGCTTGGCGATGATCT (sugars ldldddddddldlddll, PS)”, the target mRNA inhibition with MYH7 is 9% and -10%. Still for that read-out and setting: in the case of “TCAGCTTGGCGATGATCT (sugars l4 d12 l2, PS)” it was 76% and 56%; in that of “TCAGCTTGGCGATGATCT (sugars lddldldddddddlldll, PS)”, 3% and -15%; in that of “CAGCTTGGCGATGATCT (sugars lddlldddddlddddll, PS)”, 31% and 7%. Consider “CAGCTTGGCGATGATCT (sugars l2 d9 l1 d2 l3, PS)”, for which the target mRNA inhibition in the data set with MYH7 is 59% and 54%. “CAGCTTGGCGATGATCT (sugars lddldldddldddddll, PS)”: in the data set with MYH7, the target mRNA inhibition was 12% and -4%. Still for that read-out and setting: for “TCAGCTTGGCGATGATCT (sugars l2 d6 l1 d6 l3, PS)” the value was 47% and 23%. On to “CAGCTTGGCGATGATCT (sugars lddlddddddldldlll, PS)”, for which the target mRNA inhibition in the data set with MYH7 was 20% and 19%. Still for that read-out and setting: in the case of “CTTGGCAATGATCTCATCC (sugars lldlddddddddddldlll, PS)” it was 69% and 47%; in that of “CAGCTTGGCGATGATCT (sugars l2 d8 l1 d2 l4, PS)”, 37% and 35%.

Take “CAGCTTGGCGATGATCT (sugars ldllddlddldddddll, PS)”: in the data set with MYH7, the target mRNA inhibition is 28% and 5%. The same measure, in the same setting: in the case of “TCAGCTTGGCGATGATCT (sugars llldlddddddddldlll, PS)” it was 18% and 2%; in that of “TCAGCTTGGCGATGATCT (sugars llllddlddddddldlll, PS)”, 8% and -6%. Consider “CAGCTTGGCGATGATCT (sugars l2 d11 l1 d1 l2, PS)”, for which the target mRNA inhibition with MYH7 was 66% and 46%. On the same count and under the same terms, for “CTTGGCAATGATCTCATCC (sugars lldddddddlddldlddll, PS)” the value was 59% and 34%. Still for that read-out and setting: for “TCAGCTTGGCGATGATCT (sugars ldldldddddddlddlll, PS)” the value was 33% and 18%. Same read-out and setting: in the case of “CAGCTTGGCGATGATCT (sugars ldldddddddlldldll, PS)” it was 38% and 34%. As to “CAGCTTGGCGATGATCT (sugars l2 d8 l1 d3 l3, PS)”, the target mRNA inhibition with MYH7 was 48% and 29%. The same measure, in the same setting: for “CTTGGCAATGATCTCATCC (sugars l3 d11 l1 d1 l3, PS)” the value was 85% and 74%; for “TCAGCTTGGCGATGATCT (sugars ldlddlldlddddddlll, PS)”, 31% and 16%. The same measure, in the same setting: in the case of “CAGCTTGGCGATGATCT (sugars lldlldddddlddddll, PS)” it was 34% and 16%; in that of “CAGCTTGGCGATGATCT (sugars dlddlddddddlddlll, PS)”, 50% and 32%; in that of “CTTGGCAATGATCTCATCC (sugars llddlddddddddlddlll, PS)”, 53% and 28%. Still for that read-out and setting: for “CAGCTTGGCGATGATCT (sugars lddldddllddddddll, PS)” the value was 23% and 16%; for “CTTGGCAATGATCTCATCC (sugars l1 d11 l1 d2 l4, PS)”, 54% and 33%. “CTTGGCAATGATCTCATCC (sugars lddldddddddlddlddll, PS)”: the target mRNA inhibition with MYH7 is 60% and 37%. Still for that read-out and setting: in the case of “CAGCTTGGCGATGATCT (sugars ldldlldlddddddlll, PS)” it was 30% and 32%; in that of “CTTGGCAATGATCTCATCC (sugars lddddddllddlddlddll, PS)”, 26% and 5%; in that of “TCAGCTTGGCGATGATCT (sugars l2 d11 l1 d1 l3, PS)”, 64% and 55%. The same measure, in the same setting: for “CTTGGCAATGATCTCATCC (sugars lddlddddddldlddldll, PS)” the value was -3% and -25%; for “CTTGGCAATGATCTCATCC (sugars lddlddddddlldldldll, PS)”, -14% and -32%; for “TCAGCTTGGCGATGATCT (sugars ldldlddddddlddldll, PS)”, 5% and -16%. The same measure, in the same setting: in the case of “CTTGGCAATGATCTCATCC (sugars ldldddddddlldldldll, PS)” it was 24% and 29%; in that of “CTTGGCAATGATCTCATCC (sugars lllddddddlddlddldll, PS)”, 44% and 26%; in that of “CAGCTTGGCGATGATCT (sugars lldddddddldddldll, PS)”, 5% and -8%. In the case of “ATCAATAGGCAGACAGGC (sugars l2 d14 l2, PS)”, the values for the target mRNA inhibition in the data set with ANGPTL2 (5 µM) and with ANGPTL2 (25 µM) were 50.1% and 65.4%, respectively. For “CCACCCATTTAGCCTTC (sugars l1 d14 l2, PS)”, in that order: 46.7% and 42.7%. As to CTAGACATACCATCTA (sugars l3 d10 l3, PS), the target mRNA inhibition was determined as 34.9% with ANGPTL2 (5 µM) and 40% in the data set with ANGPTL2 (25 µM). Take “AGTAGCCTTCTGACCAA (sugars l1 d13 l3, PS)”: the target mRNA inhibition is 48.5% with ANGPTL2 (5 µM) and 56.5% with ANGPTL2 (25 µM). For “CAGGTCCTTGTACTTGC (sugars l2 d13 l2, PS)” the same measures were 49.2% and 62%.

For “CAGCTTGGCGATGATCT (sugars llddddddddlldldll, PS)”, in the data set with MYH7, the target mRNA inhibition is 14% and 18%. On to “CCATTTTGAGATTCCCCCAA (sugars l3 d15 l2, PS)”, for which the target mRNA inhibition with ANGPTL2 (5 µM) turned out to be 44.4%; in the data set with ANGPTL2 (25 µM) it was 43.9%. For the sequence “TCAGCTTGGCGATGATCT (sugars lddlddldddddddldll, PS)”, the target mRNA inhibition in the data set with MYH7 is 24% and 20%. Still for that read-out and setting: for “CTTGGCAATGATCTCATCC (sugars ldddddddldddlddldll, PS)” the value was 50% and 34%; for “TCAGCTTGGCGATGATCT (sugars ldlddldddddddlldll, PS)”, 36% and 19%.

Take “TCAGCTTGGCGATGATCT (sugars l3 d9 l1 d1 l4, PS)”: in the data set with MYH7, the target mRNA inhibition was 42% and 36%. With “CCCACAATGAGACTGGT (sugars l2 d13 l2, PS)”, the target mRNA inhibition with ANGPTL2 (5 µM) was found to be 30.2%; in the data set with ANGPTL2 (25 µM) it was 30.4%.

For the sequence “CAGCTTGGCGATGATCT (sugars lddldddddddldldll, PS)”, the target mRNA inhibition in the data set with MYH7 was 14% and 8%. As for “CTTGGCAATGATCTCATCC (sugars lddldddddddldldldll, PS)”, the target mRNA inhibition with MYH7 is 34% and 17%. In the case of “CAGCTTGGCGATGATCT (sugars l3 d9 l1 d2 l2, PS)”, in the data set with MYH7, the target mRNA inhibition was 64% and 46%.

As to “CTTGGCAATGATCTCATCC (sugars lddlddddddlddldldll, PS)”, the target mRNA inhibition in the data set with MYH7 is 14% and 6%.
